Patent publication US20260226047A1, “BENZIMIDAZOLE AND AZA-BENZIMIDAZOLE BASED IL-17A MODULATORS AND USES THEREOF” (DICE ALPHA, INC., priority 2023, published 2026)

These compounds were tested against T1, IL-17A/A (Homo sapiens, UniProt Q16552) (assay: IL-17A/A HEK-Blue Cell Assay). Settings: IL-17A/A inhibition, HEK-Blue IL-17A reporter cell line, SEAP readout at A630, incubated for 20 hours.
T1 construct: purchased Genscript Z03228
T1 sequence (Q16552 24-155): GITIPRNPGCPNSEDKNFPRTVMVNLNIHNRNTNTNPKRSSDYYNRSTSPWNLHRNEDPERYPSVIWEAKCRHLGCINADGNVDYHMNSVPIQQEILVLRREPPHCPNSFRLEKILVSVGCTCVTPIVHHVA
Assay type: cell-based
Method: Example 3: IL-17A/A HEK-Blue Cell Assay
The HEK-Blue IL-17A reporter cell line (Fisher #NC1408637) was used for cell-based IL-17A/A inhibition assays. Cells were grown and prepared for assays according to the manufacturer's instructions. This cell line consists of HEK 293 cells that were designed to expressed IL-17RA, IL-17RC, and the ActI adapter molecule, the combination of which, when stimulated by IL-17A/A activates a NFκB promoter and drives expression of a recombinant Secreted Alkaline Phosphatase (SEAP) gene protein. Media from the cells is then added to a development reagent (Quanti-Blue Substrate, Fisher #NC9711613), and read at A630.
Compounds were titrated in DMSO, with a top final compound concentration of 10 μM, 1 uM, or 0.3 μM, and added to the cells immediately before adding IL-17A/A (Genscript #Z03228). The cells, compound, and IL-17A/A were then incubated for 20 hours before media was removed for SEAP analysis. The resulting inhibition curve was then analyzed using Graphpad Prism 7.0, and IC50 values were determined using a 4-parameter nonlinear fit. DMSO was added to a universal final concentration of 0.1% to optimize background.
In the case of `CCn1nccc1C(=O)N[C@H](c1nc2ccc(C(COC)C3C[C@@H](C(F)(F)F)NC3=O)cc2[nH]1)C(C1CC1)C1CC1` (stereo partly drawn) [Compound 78], the IC50 is reported as over 1 µM. For `CCn1nccc1C(=O)N[C@H](c1nc2ccc(C[C@H]3CC(F)(F)CNC3=O)cc2[nH]1)C(C1CC1)C1CC1` [Compound 74], the IC50 was under 0.1 µM. `CCn1nccc1C(=O)N[C@H](c1nc2cc(CC3CCC(C(F)(F)F)NC3=O)cc(F)c2[nH]1)C(C1CC1)C1CC1` (stereo partly drawn) [Compound 53] gave an IC50 of 0.1 to 1 µM. For `CCn1nccc1C(=O)N[C@H](c1nc2cc(CC3CCC(C(F)(F)F)NC3=O)cc(F)c2[nH]1)C(C1CC1)C1CC1` (stereo partly drawn) [Compound 56], the IC50 was 0.1 to 1 µM. Work on `CCn1nccc1C(=O)N[C@H](c1nc2ccc(CC3(C)CCNC3=O)cc2[nH]1)C(C1CC1)C1CC1` (stereo partly drawn) [Compound 20] yielded an IC50 of 0.1 to 1 µM. `CCn1nccc1C(=O)N[C@H](c1nc2cc(CC3CC(C(F)(F)F)NC3=O)cc(F)c2[nH]1)C(C1CC1)C1CC1` (stereo partly drawn) [Compound 41] gave an IC50 of 0.1 to 1 µM. For `CCn1nccc1C(=O)N[C@H](c1nc2ccc(CC3C(=O)NC4CC43)cc2[nH]1)C(C1CC1)C1CC1` (stereo partly drawn) [Compound 76], the IC50 was 0.1 to 1 µM. Compound `CCn1nccc1C(=O)N[C@H](c1nc2cc(C(C)C3CCNC3=O)ccc2[nH]1)C(C1CC1)C1CC1` (stereo partly drawn) [Compound 21] has an IC50 of 0.1 to 1 µM. Work on `CCn1nccc1C(=O)N[C@H](c1nc2cc(CC3CCNC3=O)cc(C#N)c2[nH]1)C1CCC(F)(F)CC1` (stereo partly drawn) [Compound 57] yielded an IC50 of 0.1 to 1 µM. `CCn1nccc1C(=O)N[C@H](c1nc2ccc(CC3CCC(C)NC3=O)cc2[nH]1)C(C1CC1)C1CC1` (stereo partly drawn) [Compound 70] was tested, and the IC50 was 0.1 to 1 µM. Work on `CCn1nccc1C(=O)N[C@H](c1nc2cc(C(C)C3CCNC3=O)ccc2[nH]1)C(C1CC1)C1CC1` (stereo partly drawn) [Compound 23] yielded an IC50 of over 1 µM. For `CCn1nccc1C(=O)N[C@H](c1nc2ccc(CC3CCCNC3=O)cc2[nH]1)C(C1CC1)C1CC1` (stereo partly drawn) [Compound 17], the IC50 was 0.1 to 1 µM. `CCn1nccc1C(=O)N[C@H](c1nc2cc(CC3CCNC3=O)ccc2[nH]1)C(C1CC1)C1CC1` (stereo partly drawn) [Compound 15] showed an IC50 of 0.1 to 1 µM. `CCn1nccc1C(=O)N[C@H](c1nc2ccc(CC3CCCNC3=O)cc2[nH]1)[C@H]1CC[C@H](C(F)(F)F)CC1` (stereo partly drawn) [Compound 88] showed an IC50 of over 1 µM. With `CCn1nccc1C(=O)N[C@H](c1nc2c(F)c(CC3CCC(C(F)(F)F)NC3=O)ccc2[nH]1)C(C1CC1)C1CC1` (single isomer, unassigned) [Compound 48] the IC50 was over 1 µM. `CCn1nccc1C(=O)N[C@H](c1nc2ccc(C[C@H]3CCCNC3=O)cc2[nH]1)C1CCC(F)(F)CC1` [Compound 86] showed an IC50 of over 1 µM. `CCn1nccc1C(=O)N[C@H](c1nc2ccc(C[C@H]3CCNC3=O)cc2[nH]1)[C@H](c1ccccc1Cl)C(C)C` [Compound 62] showed an IC50 of over 1 µM. `CCn1nccc1C(=O)NC(c1nc2nc(CC3CCNC3=O)ccc2[nH]1)C1CCC(F)(F)CC1` (mixture of isomers) [Compound 9] was tested, and the IC50 was over 1 µM. For `CCn1nccc1C(=O)N[C@H](c1nc2nc(CC3CCNC3=O)ccc2[nH]1)C1CCC(F)(F)CC1` (stereo partly drawn) [Compound 30], the IC50 was over 1 µM. For `CCn1nccc1C(=O)N[C@H](c1nc2ccc(CC3CC(C(F)(F)F)CNC3=O)cc2[nH]1)C(C1CC1)C1CC1` (stereo partly drawn) [Compound 71], the IC50 was 0.1 to 1 µM. `CCn1nccc1C(=O)N[C@H](c1nc2c(F)c(CC3CCNC3=O)ccc2[nH]1)C(C1CC1)C1CC1` (mixture of isomers) [Compound 2, N-((1S)-2,2-dicyclopropyl-1-(7-fluoro-6-((2-oxopyrrolidin-3-yl)methyl)-1H-benzo[d]imidazol-2-yl)ethyl)-1-ethyl-1H-pyrazole-5-carboxamide] was tested, and the IC50 was 0.1 to 1 µM. With `CCn1nccc1C(=O)N[C@H](c1nc2ccc(C[C@@H]3CC(F)(F)CNC3=O)cc2[nH]1)C(C1CC1)C1CC1` [Compound 75] the IC50 was 0.1 to 1 µM. In the case of `CCn1nccc1C(=O)N[C@@H](c1nc2nc(CC3CCNC3=O)ccc2[nH]1)C1CCC(F)(F)CC1` (stereo partly drawn) [Compound 29], the IC50 is reported as over 1 µM. Compound `CCn1nccc1C(=O)N[C@H](c1nc2ccc(C(COC)C3C[C@@H](C(F)(F)F)NC3=O)cc2[nH]1)C(C1CC1)C1CC1` (stereo partly drawn) [Compound 79] has an IC50 of 0.1 to 1 µM. For `CCn1nccc1C(=O)N[C@H](c1nc2c(F)c(CC3CC(C(F)(F)F)NC3=O)ccc2[nH]1)C(C1CC1)C1CC1` (stereo partly drawn) [Compound 39], the IC50 was over 1 µM. `CCn1nccc1C(=O)N[C@H](c1nc2ccc(C(COC)C3C[C@@H](C(F)(F)F)NC3=O)cc2[nH]1)C(C1CC1)C1CC1` (stereo partly drawn) [Compound 80] showed an IC50 of 0.1 to 1 µM. For `CCn1nccc1C(=O)N[C@H](c1nc2c(F)c(C[C@@H]3C[C@@H](C(F)(F)F)NC3=O)ccc2[nH]1)C(C1CC1)C1CC1` [Compound 37], the IC50 was 0.1 to 1 µM. In the case of `CCn1nccc1C(=O)N[C@H](c1nc2cc(C[C@H]3CCNC3=O)cc(F)c2[nH]1)C1CCC(F)(F)CC1` [Compound 13], the IC50 is reported as 0.1 to 1 µM. `CCn1nccc1C(=O)N[C@H](c1nc2cc(CC3CC(C(F)(F)F)NC3=O)cc(F)c2[nH]1)C(C1CC1)C1CC1` (stereo partly drawn) [Compound 33] showed an IC50 of 0.1 to 1 µM. Compound `CCn1nccc1C(=O)N[C@H](c1nc2ccc(C(C)C3CCCNC3=O)cc2[nH]1)C(C1CC1)C1CC1` (stereo partly drawn) [Compound 81] has an IC50 of over 1 µM.
